{"source": "paper PMC9067983", "about": "“Identification of highly selective type II kinase inhibitors with chiral peptidomimetic tails” (Journal of Enzyme Inhibition and Medicinal Chemistry, 2022)", "assay_in_all_cases": "kinase selectivity profiling", "type_in_all_cases": "biochemical", "conditions_in_all_cases": "10µM ATP, read-out: % inhibition (relative to DMSO)", "key": {"AKT3": {"biological_target": "T1, AKT3 (Homo sapiens, UniProt Q9Y243)", "T1 construct": "purchased Reaction Biology Corp", "T1 sequence (Q9Y243 whole entry)": "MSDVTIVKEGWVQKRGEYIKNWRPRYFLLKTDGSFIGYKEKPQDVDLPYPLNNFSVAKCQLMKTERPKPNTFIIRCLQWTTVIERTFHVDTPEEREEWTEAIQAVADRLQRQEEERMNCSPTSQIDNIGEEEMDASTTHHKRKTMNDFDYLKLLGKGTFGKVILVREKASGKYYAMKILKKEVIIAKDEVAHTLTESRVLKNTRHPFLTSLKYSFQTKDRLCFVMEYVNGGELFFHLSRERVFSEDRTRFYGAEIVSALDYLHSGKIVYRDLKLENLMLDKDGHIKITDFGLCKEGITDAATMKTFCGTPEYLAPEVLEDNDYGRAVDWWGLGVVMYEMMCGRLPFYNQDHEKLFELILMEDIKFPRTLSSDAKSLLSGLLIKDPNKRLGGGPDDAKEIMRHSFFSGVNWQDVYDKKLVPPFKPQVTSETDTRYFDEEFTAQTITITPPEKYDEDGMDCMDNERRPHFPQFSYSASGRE", "description": "(§1) Full panel kinase profiling and kinase IC50 measurement were performed by using Reaction Biology Corp. (San Diego, USA)."}, "ALK2/ACVR1": {"biological_target": "T2, ALK2/ACVR1 (Homo sapiens, UniProt Q04771)", "T2 construct": "purchased Reaction Biology Corp", "description": "as §1"}, "AXL": {"biological_target": "T3, AXL (Homo sapiens, UniProt P30530)", "T3 construct": "purchased Reaction Biology Corp", "description": "as §1"}, "BMPR2": {"biological_target": "T4, BMPR2 (Homo sapiens, UniProt Q13873)", "T4 construct": "purchased Reaction Biology Corp", "description": "as §1"}, "BRSK2": {"biological_target": "T5, BRSK2 (Homo sapiens, UniProt Q8IWQ3)", "T5 construct": "purchased Reaction Biology Corp", "description": "as §1"}, "CAMKK1": {"biological_target": "T6, CAMKK1 (Homo sapiens, UniProt Q8N5S9)", "T6 construct": "purchased Reaction Biology Corp", "description": "as §1"}, "CDK1/cyclin B": {"biological_target": "T7, CDK1/cyclin B (Homo sapiens, UniProt P06493)", "T7 construct": "purchased Reaction Biology Corp", "description": "as §1"}, "CDK2/cyclin E2": {"biological_target": "T8, CDK2/cyclin E2 (Homo sapiens, UniProt P24941)", "T8 construct": "purchased Reaction Biology Corp", "description": "as §1"}, "CDK3/cyclin E": {"biological_target": "T9, CDK3/cyclin E (Homo sapiens, UniProt Q00526)", "T9 construct": "purchased Reaction Biology Corp", "description": "as §1"}, "CDK4/cyclin D3": {"biological_target": "T10, CDK4/cyclin D3 (Homo sapiens, UniProt P11802)", "T10 construct": "purchased Reaction Biology Corp", "description": "as §1"}, "CDK6/cyclin D1": {"biological_target": "T11, CDK6/cyclin D1 (Homo sapiens, UniProt Q00534)", "T11 construct": "purchased Reaction Biology Corp", "T11 sequence (Q00534 whole entry)": "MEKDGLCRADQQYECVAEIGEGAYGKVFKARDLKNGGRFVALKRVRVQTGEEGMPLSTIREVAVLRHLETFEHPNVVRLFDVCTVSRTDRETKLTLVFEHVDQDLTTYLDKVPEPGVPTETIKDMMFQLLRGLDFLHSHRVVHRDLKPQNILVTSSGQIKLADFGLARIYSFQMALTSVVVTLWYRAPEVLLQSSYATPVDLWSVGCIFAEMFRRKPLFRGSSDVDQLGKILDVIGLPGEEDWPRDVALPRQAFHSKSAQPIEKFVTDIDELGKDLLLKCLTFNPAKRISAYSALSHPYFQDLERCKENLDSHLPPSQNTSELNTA", "T11 sequence (P24385 whole entry partner)": "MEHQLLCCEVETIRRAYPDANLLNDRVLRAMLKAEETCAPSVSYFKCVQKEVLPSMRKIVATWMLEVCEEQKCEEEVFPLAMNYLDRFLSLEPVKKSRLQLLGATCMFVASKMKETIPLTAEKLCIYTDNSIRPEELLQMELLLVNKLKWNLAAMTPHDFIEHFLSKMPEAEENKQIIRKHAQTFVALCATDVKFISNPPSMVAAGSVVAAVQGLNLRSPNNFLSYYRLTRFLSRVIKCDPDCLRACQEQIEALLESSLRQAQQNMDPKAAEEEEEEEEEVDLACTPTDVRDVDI", "description": "as §1"}, "CK1g3": {"biological_target": "T12, CK1g3 (Homo sapiens, UniProt Q9Y6M4)", "T12 construct": "purchased Reaction Biology Corp", "description": "as §1"}, "CK2a2": {"biological_target": "T13, CK2a2 (Homo sapiens, UniProt P19784)", "T13 construct": "purchased Reaction Biology Corp", "description": "as §1"}, "CSK": {"biological_target": "T14, CSK (Homo sapiens, UniProt P41240)", "T14 construct": "purchased Reaction Biology Corp", "description": "as §1"}, "EPHB3": {"biological_target": "T15, EPHB3 (Homo sapiens, UniProt P54753)", "T15 construct": "purchased Reaction Biology Corp", "description": "as §1"}, "FLT4/VEGFR3": {"biological_target": "T16, FLT4/VEGFR3 (Homo sapiens, UniProt P35916)", "T16 construct": "purchased Reaction Biology Corp", "description": "as §1"}, "GRK2": {"biological_target": "T17, GRK2 (Homo sapiens, UniProt P25098)", "T17 construct": "purchased Reaction Biology Corp", "description": "as §1"}, "GRK4": {"biological_target": "T18, GRK4 (Homo sapiens, UniProt P32298)", "T18 construct": "purchased Reaction Biology Corp", "description": "as §1"}, "GRK5": {"biological_target": "T19, GRK5 (Homo sapiens, UniProt P34947)", "T19 construct": "purchased Reaction Biology Corp", "description": "as §1"}, "IKKa/CHUK": {"biological_target": "T20, IKKa/CHUK (Homo sapiens, UniProt O15111)", "T20 construct": "purchased Reaction Biology Corp", "T20 sequence (O15111 whole entry)": "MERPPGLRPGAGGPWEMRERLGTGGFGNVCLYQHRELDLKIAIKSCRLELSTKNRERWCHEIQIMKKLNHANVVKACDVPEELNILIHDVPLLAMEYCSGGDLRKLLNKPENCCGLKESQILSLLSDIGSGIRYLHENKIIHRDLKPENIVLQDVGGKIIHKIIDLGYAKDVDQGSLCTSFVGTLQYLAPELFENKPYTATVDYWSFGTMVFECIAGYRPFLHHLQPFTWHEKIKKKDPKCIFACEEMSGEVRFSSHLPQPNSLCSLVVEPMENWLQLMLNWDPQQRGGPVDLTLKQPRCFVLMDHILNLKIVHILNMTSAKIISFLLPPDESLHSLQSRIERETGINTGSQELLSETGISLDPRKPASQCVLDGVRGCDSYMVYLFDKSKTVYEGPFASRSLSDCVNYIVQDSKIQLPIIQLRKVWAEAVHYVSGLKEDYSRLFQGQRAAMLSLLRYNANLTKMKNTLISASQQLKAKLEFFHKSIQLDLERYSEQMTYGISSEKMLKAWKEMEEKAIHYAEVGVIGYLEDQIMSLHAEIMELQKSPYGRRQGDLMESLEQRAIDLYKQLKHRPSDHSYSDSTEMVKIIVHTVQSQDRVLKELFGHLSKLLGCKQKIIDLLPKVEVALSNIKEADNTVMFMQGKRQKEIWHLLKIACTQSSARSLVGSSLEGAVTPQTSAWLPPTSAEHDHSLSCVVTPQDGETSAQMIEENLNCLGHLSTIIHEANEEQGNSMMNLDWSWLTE", "description": "as §1"}, "IRAK4": {"biological_target": "T21, IRAK4 (Homo sapiens, UniProt Q9NWZ3)", "T21 construct": "purchased Reaction Biology Corp", "description": "as §1"}, "LATS1": {"biological_target": "T22, LATS1 (Homo sapiens, UniProt O95835)", "T22 construct": "purchased Reaction Biology Corp", "description": "as §1"}, "MLCK/MYLK": {"biological_target": "T23, MLCK/MYLK (Homo sapiens, UniProt Q15746)", "T23 construct": "purchased Reaction Biology Corp", "description": "as §1"}, "MLK4": {"biological_target": "T24, MLK4 (Homo sapiens, UniProt Q5TCX8)", "T24 construct": "purchased Reaction Biology Corp", "description": "as §1"}, "NEK11": {"biological_target": "T25, NEK11 (Homo sapiens, UniProt Q8NG66)", "T25 construct": "purchased Reaction Biology Corp", "description": "as §1"}, "PKCG": {"biological_target": "T26, PKCG (Homo sapiens, UniProt P05129)", "T26 construct": "purchased Reaction Biology Corp", "description": "as §1"}, "PKG1b": {"biological_target": "T27, PKG1b (Homo sapiens, UniProt Q13976)", "T27 construct": "purchased Reaction Biology Corp", "description": "as §1"}, "PKG2/PRKG2": {"biological_target": "T28, PKG2/PRKG2 (Homo sapiens, UniProt Q13237)", "T28 construct": "purchased Reaction Biology Corp", "description": "as §1"}, "PKN1/PRK1": {"biological_target": "T29, PKN1/PRK1 (Homo sapiens, UniProt Q16512)", "T29 construct": "purchased Reaction Biology Corp", "description": "as §1"}, "PLK4/SAK": {"biological_target": "T30, PLK4/SAK (Homo sapiens, UniProt O00444)", "T30 construct": "purchased Reaction Biology Corp", "T30 sequence (O00444 whole entry)": "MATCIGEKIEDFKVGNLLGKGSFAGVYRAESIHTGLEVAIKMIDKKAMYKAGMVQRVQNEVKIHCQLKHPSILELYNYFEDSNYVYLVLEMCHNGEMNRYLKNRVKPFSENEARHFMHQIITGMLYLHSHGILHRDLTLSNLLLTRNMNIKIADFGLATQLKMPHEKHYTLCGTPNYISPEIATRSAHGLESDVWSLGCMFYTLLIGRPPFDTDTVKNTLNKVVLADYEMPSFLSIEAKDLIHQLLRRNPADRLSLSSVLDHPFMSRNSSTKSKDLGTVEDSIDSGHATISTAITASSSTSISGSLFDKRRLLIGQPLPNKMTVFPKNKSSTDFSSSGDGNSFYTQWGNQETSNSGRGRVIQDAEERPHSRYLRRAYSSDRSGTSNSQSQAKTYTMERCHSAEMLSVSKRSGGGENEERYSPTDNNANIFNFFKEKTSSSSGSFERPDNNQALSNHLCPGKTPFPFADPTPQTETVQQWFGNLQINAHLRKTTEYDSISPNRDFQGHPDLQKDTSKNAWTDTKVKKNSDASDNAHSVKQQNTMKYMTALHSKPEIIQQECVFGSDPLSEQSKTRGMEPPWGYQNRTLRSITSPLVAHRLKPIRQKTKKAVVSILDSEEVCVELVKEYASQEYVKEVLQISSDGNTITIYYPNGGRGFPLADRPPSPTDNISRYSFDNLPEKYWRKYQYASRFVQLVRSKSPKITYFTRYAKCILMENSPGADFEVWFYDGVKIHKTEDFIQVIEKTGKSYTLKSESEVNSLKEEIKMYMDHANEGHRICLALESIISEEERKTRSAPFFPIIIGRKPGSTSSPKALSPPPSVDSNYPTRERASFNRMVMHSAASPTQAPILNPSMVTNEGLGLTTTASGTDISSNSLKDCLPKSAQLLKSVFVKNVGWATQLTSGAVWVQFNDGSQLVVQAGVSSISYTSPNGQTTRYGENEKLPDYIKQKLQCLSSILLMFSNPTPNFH", "description": "as §1"}, "RAF1": {"biological_target": "T31, RAF1 (Homo sapiens, UniProt P04049)", "T31 construct": "purchased Reaction Biology Corp", "description": "as §1"}, "RIPK5": {"biological_target": "T32, RIPK5 (Homo sapiens, UniProt Q6XUX3)", "T32 construct": "purchased Reaction Biology Corp", "T32 sequence (Q6XUX3 whole entry)": "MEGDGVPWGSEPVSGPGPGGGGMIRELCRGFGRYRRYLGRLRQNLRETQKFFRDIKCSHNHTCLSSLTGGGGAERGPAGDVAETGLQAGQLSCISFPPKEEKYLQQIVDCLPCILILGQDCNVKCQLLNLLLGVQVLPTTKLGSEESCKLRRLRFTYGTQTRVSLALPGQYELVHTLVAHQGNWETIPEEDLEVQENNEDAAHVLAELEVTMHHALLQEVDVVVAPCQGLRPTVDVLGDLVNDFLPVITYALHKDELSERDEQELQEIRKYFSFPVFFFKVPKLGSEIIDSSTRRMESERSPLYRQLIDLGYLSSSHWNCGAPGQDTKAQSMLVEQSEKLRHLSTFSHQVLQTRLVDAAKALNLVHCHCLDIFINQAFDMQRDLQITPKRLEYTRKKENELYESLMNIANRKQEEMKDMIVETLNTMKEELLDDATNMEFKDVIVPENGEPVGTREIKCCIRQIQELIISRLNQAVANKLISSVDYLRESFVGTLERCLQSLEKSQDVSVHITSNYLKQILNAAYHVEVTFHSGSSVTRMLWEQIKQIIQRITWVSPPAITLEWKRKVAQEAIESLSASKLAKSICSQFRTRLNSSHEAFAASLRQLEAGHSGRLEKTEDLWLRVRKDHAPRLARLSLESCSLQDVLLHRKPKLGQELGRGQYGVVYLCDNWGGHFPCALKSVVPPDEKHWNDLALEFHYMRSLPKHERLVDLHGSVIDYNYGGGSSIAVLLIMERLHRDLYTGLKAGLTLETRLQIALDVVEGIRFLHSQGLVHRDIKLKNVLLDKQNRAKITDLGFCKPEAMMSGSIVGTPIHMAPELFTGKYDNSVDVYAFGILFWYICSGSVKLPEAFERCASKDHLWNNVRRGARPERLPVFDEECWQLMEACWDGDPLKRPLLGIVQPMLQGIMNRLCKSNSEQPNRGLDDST", "description": "as §1"}, "SIK2": {"biological_target": "T33, SIK2 (Homo sapiens, UniProt Q9H0K1)", "T33 construct": "purchased Reaction Biology Corp", "description": "as §1"}, "SNARK/NUAK2": {"biological_target": "T34, SNARK/NUAK2 (Homo sapiens, UniProt Q9H093)", "T34 construct": "purchased Reaction Biology Corp", "description": "as §1"}, "SSTK/TSSK6": {"biological_target": "T35, SSTK/TSSK6 (Homo sapiens, UniProt Q9BXA6)", "T35 construct": "purchased Reaction Biology Corp", "T35 sequence (Q9BXA6 whole entry)": "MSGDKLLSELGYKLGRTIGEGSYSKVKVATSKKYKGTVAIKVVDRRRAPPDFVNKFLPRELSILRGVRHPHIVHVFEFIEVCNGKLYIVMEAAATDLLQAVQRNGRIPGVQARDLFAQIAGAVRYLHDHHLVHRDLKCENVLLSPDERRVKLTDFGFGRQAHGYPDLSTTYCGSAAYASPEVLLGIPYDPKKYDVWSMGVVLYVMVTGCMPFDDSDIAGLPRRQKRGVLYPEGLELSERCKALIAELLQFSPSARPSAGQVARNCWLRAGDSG", "description": "as §1"}, "SYK": {"biological_target": "T36, SYK (Homo sapiens, UniProt P43405)", "T36 construct": "purchased Reaction Biology Corp", "description": "as §1"}, "TESK1": {"biological_target": "T37, TESK1 (Homo sapiens, UniProt Q15569)", "T37 construct": "purchased Reaction Biology Corp", "description": "as §1"}, "TESK2": {"biological_target": "T38, TESK2 (Homo sapiens, UniProt Q96S53)", "T38 construct": "purchased Reaction Biology Corp", "description": "as §1"}, "TRKB": {"biological_target": "T39, TRKB (Homo sapiens, UniProt Q16620)", "T39 construct": "purchased Reaction Biology Corp", "description": "as §1"}, "TRKC": {"biological_target": "T40, TRKC (Homo sapiens, UniProt Q16288)", "T40 construct": "purchased Reaction Biology Corp", "description": "as §1"}, "TXK": {"biological_target": "T41, TXK (Homo sapiens, UniProt P42681)", "T41 construct": "purchased Reaction Biology Corp", "description": "as §1"}, "TYRO3/SKY": {"biological_target": "T42, TYRO3/SKY (Homo sapiens, UniProt Q06418)", "T42 construct": "purchased Reaction Biology Corp", "T42 sequence (Q06418 41-890)": "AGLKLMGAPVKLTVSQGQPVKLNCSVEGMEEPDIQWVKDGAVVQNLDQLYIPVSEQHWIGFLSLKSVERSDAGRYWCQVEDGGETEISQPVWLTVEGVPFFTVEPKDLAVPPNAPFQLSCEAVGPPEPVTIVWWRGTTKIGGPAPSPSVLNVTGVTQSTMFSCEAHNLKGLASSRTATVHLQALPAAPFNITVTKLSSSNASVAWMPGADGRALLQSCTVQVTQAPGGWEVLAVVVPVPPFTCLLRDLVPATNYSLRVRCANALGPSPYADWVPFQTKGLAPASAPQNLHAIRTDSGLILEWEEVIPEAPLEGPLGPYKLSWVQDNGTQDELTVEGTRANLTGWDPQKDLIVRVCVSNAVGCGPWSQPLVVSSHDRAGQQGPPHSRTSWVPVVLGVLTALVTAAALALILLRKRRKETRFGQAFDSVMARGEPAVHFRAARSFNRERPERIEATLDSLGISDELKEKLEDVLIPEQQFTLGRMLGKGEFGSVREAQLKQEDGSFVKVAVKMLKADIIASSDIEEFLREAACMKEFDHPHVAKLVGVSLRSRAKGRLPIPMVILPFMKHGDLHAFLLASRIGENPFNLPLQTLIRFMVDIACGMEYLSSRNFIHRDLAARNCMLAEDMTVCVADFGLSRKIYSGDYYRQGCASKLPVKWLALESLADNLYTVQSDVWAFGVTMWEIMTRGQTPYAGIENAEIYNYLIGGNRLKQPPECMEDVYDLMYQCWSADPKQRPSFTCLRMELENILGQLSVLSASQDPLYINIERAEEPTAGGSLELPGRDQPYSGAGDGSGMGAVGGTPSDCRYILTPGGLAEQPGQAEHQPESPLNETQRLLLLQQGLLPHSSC", "description": "as §1"}, "WEE1": {"biological_target": "T43, WEE1 (Homo sapiens, UniProt P30291)", "T43 construct": "purchased Reaction Biology Corp", "description": "as §1"}}, "note": "Where a SMILES comes first, the peptide text is derived from it. [ ]: non-standard residue; d: D form. The star is where a group is joined. X1 = Cc1ccc(Nc2ncc3c(n2)N(C)C(=O)N(c2cc(C(=O)*)ccc2C)C3)cn1; Aib = CC(C)(N)C(=O)O", "data": [{"compound": "Cc1ccc(Nc2ncc3c(n2)N(C)C(=O)N(c2cc(C(=O)N[C@H](C(=O)N4CCC[C@H]4C(=O)NC(C)(C)C(=O)N[C@@H](CC(C)C)C(=O)N(C)C)C(C)C)ccc2C)C3)cn1", "note": "[7a, (S)-N-(1-(((S)-1-(dimethylamino)-4-methyl-1-oxopentan-2-yl)amino)-2-methyl-1-oxopropan-2-yl)-1-((4-methyl-3-(1-methyl-7-((6-methylpyridin-3-yl)amino)-2-oxo-1,4-dihydropyrimido[4,5-d]pyrimidin-3(2H)-yl)benzoyl)-L-valyl)pyrrolidine-2-carboxamide] (X1-VP[Aib]L-NMe2)", "values": [{"measurement": "inhibition at 1 µM", "setting": "AKT3", "result": 10, "unit": "%"}, {"measurement": "inhibition at 1 µM", "setting": "ALK2/ACVR1", "result": 2, "unit": "%"}, {"measurement": "inhibition at 1 µM", "setting": "AXL", "result": 0, "unit": "%"}, {"measurement": "inhibition at 1 µM", "setting": "BMPR2", "result": 10, "unit": "%"}, {"measurement": "inhibition at 1 µM", "setting": "BRSK2", "result": 8, "unit": "%"}, {"measurement": "inhibition at 1 µM", "setting": "CAMKK1", "result": 0, "unit": "%"}, {"measurement": "inhibition at 1 µM", "setting": "CDK1/cyclin B", "result": 7, "unit": "%"}, {"measurement": "inhibition at 1 µM", "setting": "CDK2/cyclin E2", "result": 0, "unit": "%"}, {"measurement": "inhibition at 1 µM", "setting": "CDK3/cyclin E", "result": 0, "unit": "%"}, {"measurement": "inhibition at 1 µM", "setting": "CDK4/cyclin D3", "result": 3, "unit": "%"}, {"measurement": "inhibition at 1 µM", "setting": "CDK6/cyclin D1", "result": 0, "unit": "%"}, {"measurement": "inhibition at 1 µM", "setting": "CK1g3", "result": 0, "unit": "%"}, {"measurement": "inhibition at 1 µM", "setting": "CK2a2", "result": 3, "unit": "%"}, {"measurement": "inhibition at 1 µM", "setting": "CSK", "result": 44, "unit": "%"}, {"measurement": "inhibition at 1 µM", "setting": "EPHB3", "result": 8, "unit": "%"}, {"measurement": "inhibition at 1 µM", "setting": "FLT4/VEGFR3", "result": 20, "unit": "%"}, {"measurement": "inhibition at 1 µM", "setting": "GRK2", "result": 0, "unit": "%"}, {"measurement": "inhibition at 1 µM", "setting": "GRK4", "result": 1, "unit": "%"}, {"measurement": "inhibition at 1 µM", "setting": "GRK5", "result": 1, "unit": "%"}, {"measurement": "inhibition at 1 µM", "setting": "IKKa/CHUK", "result": 6, "unit": "%"}, {"measurement": "inhibition at 1 µM", "setting": "IRAK4", "result": 4, "unit": "%"}, {"measurement": "inhibition at 1 µM", "setting": "LATS1", "result": 4, "unit": "%"}, {"measurement": "inhibition at 1 µM", "setting": "MLCK/MYLK", "result": 0, "unit": "%"}, {"measurement": "inhibition at 1 µM", "setting": "MLK4", "result": 7, "unit": "%"}, {"measurement": "inhibition at 1 µM", "setting": "NEK11", "result": 1, "unit": "%"}, {"measurement": "inhibition at 1 µM", "setting": "PKCG", "result": 9, "unit": "%"}, {"measurement": "inhibition at 1 µM", "setting": "PKG1b", "result": 0, "unit": "%"}, {"measurement": "inhibition at 1 µM", "setting": "PKG2/PRKG2", "result": 11, "unit": "%"}, {"measurement": "inhibition at 1 µM", "setting": "PKN1/PRK1", "result": 1, "unit": "%"}, {"measurement": "inhibition at 1 µM", "setting": "PLK4/SAK", "result": 5, "unit": "%"}, {"measurement": "inhibition at 1 µM", "setting": "RAF1", "result": 69, "unit": "%"}, {"measurement": "inhibition at 1 µM", "setting": "RIPK5", "result": 0, "unit": "%"}, {"measurement": "inhibition at 1 µM", "setting": "SIK2", "result": 2, "unit": "%"}, {"measurement": "inhibition at 1 µM", "setting": "SNARK/NUAK2", "result": 6, "unit": "%"}, {"measurement": "inhibition at 1 µM", "setting": "SSTK/TSSK6", "result": 0, "unit": "%"}, {"measurement": "inhibition at 1 µM", "setting": "SYK", "result": 0, "unit": "%"}, {"measurement": "inhibition at 1 µM", "setting": "TESK1", "result": 0, "unit": "%"}, {"measurement": "inhibition at 1 µM", "setting": "TESK2", "result": 4, "unit": "%"}, {"measurement": "inhibition at 1 µM", "setting": "TRKB", "result": 5, "unit": "%"}, {"measurement": "inhibition at 1 µM", "setting": "TRKC", "result": 21, "unit": "%"}, {"measurement": "inhibition at 1 µM", "setting": "TXK", "result": 0, "unit": "%"}, {"measurement": "inhibition at 1 µM", "setting": "TYRO3/SKY", "result": 1, "unit": "%"}, {"measurement": "inhibition at 1 µM", "setting": "WEE1", "result": 0, "unit": "%"}]}]}
